US20230106174A1, “RAS INHIBITORS” (Revolution Medicines, Inc., priority 2021, published 2023)
pIC50: −log10 of the molar value. Where two headings read alike, the source gives them in different places. One block for each molecule: values may come before it.

Key:
K-Ras G12C = target: T1, K-Ras G12C (Homo sapiens, UniProt P01116+P62937, G12C); test: pERK potency assay in NCI-H358 cells (AlphaLISA SureFire or In-Cell Western); assay type: cell-based; settings: 4 hours incubation
T1 construct: endogenous in cells; host or cells: NCI-H358
Method: The purpose of this assay was to measure the ability of test compounds to inhibit K-Ras in cells. […] This procedure measures a decrease in cellular pERK in response to test compounds. The procedure described below in NCI-H358 cells is applicable to K-Ras G12C. […]
NCI-H358 cells were grown and maintained using media and procedures recommended by the ATCC. On the day prior to compound addition, cells were plated in 384-well cell culture plates (40 μl/well) and grown overnight in a 37° C., 5% CO2 incubator. Test compounds were prepared in 10, 3-fold dilutions in DMSO, with a high concentration of 10 mM. On the day of assay, 40 nL of test compound was added to each well of cell culture plate using an Echo550 liquid handler (LabCyte®). Concentrations of test compound were tested in duplicate. After compound addition, cells were incubated 4 hours at 37° C., 5% CO2. Following incubation, culture medium was removed and cells were washed once with phosphate buffered saline.
In some experiments, cellular pERK level was determined using the AlphaLISA SureFire Ultra p-ERK1/2 Assay Kit (PerkinElmer). Cells were lysed in 25 μL lysis buffer, with shaking at 600 RPM at room temperature. Lysate (10 μL) was transferred to a 384-well Opti-plate (PerkinElmer) and 5 μL acceptor mix was added. After a 2-hour incubation in the dark, 5 μL donor mix was added, the plate was sealed, and incubated 2 hours at room temperature. Signal was read on an Envision plate reader (PerkinElmer) using standard AlphaLISA settings. Analysis of raw data was carried out in Excel (Microsoft) and Prism (GraphPad). Signal was plotted vs. the decadal logarithm of compound concentration, and IC50 was determined by fitting a 4-parameter sigmoidal concentration response model.
In other experiments, cellular pERK was determined by In-Cell Western. Following compound treatment, cells were washed twice with 200 μL tris buffered saline (TBS) and fixed for 15 minutes with 150 μL 4% paraformaldehyde in TBS. Fixed cells were washed 4 times for 5 minutes with TBS containing 0.1% Triton X-100 (TBST) and then blocked with 100 μL Odyssey blocking buffer (LI-COR) for 60 minutes at room temperature. […] Cells were washed 4 times for 5 minutes with TBST. Secondary antibody (IR-800CW rabbit, LI-COR, diluted 1:800) and DNA stain DRAQ5 (LI-COR, diluted 1:2000) were added and incubated 1-2 hours at room temperature. Cells were washed 4 times for 5 minutes with TBST. Plates were scanned on a Li—COR Odyssey CLx Imager. Analysis of raw data was carried out in Excel (Microsoft) and Prism (GraphPad). Signal was plotted vs. the decadal logarithm of compound concentration, and IC50 was determined by fitting a 4-parameter sigmoidal concentration response model.

NCI-H358 (K-Ras G12C) = test: CellTiter-Glo cell viability assay, 5-day treatment, NCI-H358; assay type: cell-based; settings: Homo sapiens, NCI-H358, 120 h
Source text: Determination of Cell Viability in RAS Mutant Cancer Cell Lines
Protocol: CellTiter-Glo® Cell Viability Assay
Note—The following protocol describes a procedure for monitoring cell viability of K-Ras mutant cancer cell lines in response to a compound of the invention. Other RAS isoforms may be employed, though the number of cells to be seeded will vary based on cell line used.
The purpose of this cellular assay was to determine the effects of test compounds on the proliferation of three human cancer cell lines (NCI-H358 (K-Ras G12C), AsPC-1 (K-Ras G12D), and Capan-1 (K-Ras G12V)) over a 5-day treatment period by quantifying the amount of ATP present at endpoint using the CellTiter-Glo® 2.0 Reagent (Promega).
Cells were seeded at 250 cells/well in 40 μL of growth medium in 384-well assay plates and incubated overnight in a humidified atmosphere of 5% CO2 at 37° C. On the day of the assay, 10 mM stock solutions of test compounds were first diluted into 3 mM solutions with 100% DMSO. Well-mixed compound solutions (15 μL) were transferred to the next wells containing 30 μL of 100% DMSO, and repeated until a 9-concentration 3-fold serial dilution was made (starting assay concentration of 10 μM). Test compounds (132.5 nL) were directly dispensed into the assay plates containing cells. The plates were shaken for 15 seconds at 300 rpm, centrifuged, and incubated in a humidified atmosphere of 5% CO2 at 37° C. for 5 days. On day 5, assay plates and their contents were equilibrated to room temperature for approximately 30 minutes. CellTiter-Glo® 2.0 Reagent (25 μL) was added, and plate contents were mixed for 2 minutes on an orbital shaker before incubation at room temperature for 10 minutes. Luminescence was measured using the PerkinElmer Enspire. Data were normalized by the following: (Sample signal/Avg. DMSO)*100. The data were fit using a four-parameter logistic fit.

T1 sequence (P01116 1-188 isoform P01116-2 G12C): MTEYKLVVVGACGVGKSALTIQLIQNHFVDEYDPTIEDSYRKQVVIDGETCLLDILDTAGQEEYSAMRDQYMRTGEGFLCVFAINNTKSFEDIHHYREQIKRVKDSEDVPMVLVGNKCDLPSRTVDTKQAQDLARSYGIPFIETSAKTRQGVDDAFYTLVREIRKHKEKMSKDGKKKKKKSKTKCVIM
T1 sequence (P62937 whole entry): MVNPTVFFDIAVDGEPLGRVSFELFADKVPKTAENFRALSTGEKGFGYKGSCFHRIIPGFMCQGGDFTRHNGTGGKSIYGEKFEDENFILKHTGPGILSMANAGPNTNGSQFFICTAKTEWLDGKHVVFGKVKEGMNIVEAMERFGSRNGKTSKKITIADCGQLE

pIC50 (K-Ras G12C): < 6.00
pIC50 (NCI-H358 (K-Ras G12C)): < 6.00
SMILES: CCn1c(-c2cccnc2[C@H](C)OC)c2c3cc(ccc31)N1CCO[C@@H](C[C@H](NC(=O)[C@H](C(C)C)N(C)C(=O)N3CCC4(CC3)CN(C(=O)/C=C/CF)C4)C(=O)N3CCC[C@H](N3)C(=O)OCC(C)(C)C2)C1 (atropisomer, axis not shown) [Example A128]

pIC50 (NCI-H358 (K-Ras G12C)): < 6.00
SMILES: CCn1c(-c2cccnc2[C@H](C)OC)c2c3cc(ccc31)-c1cc(C(F)F)cc(n1)C[C@H](NC(=O)[C@H](C(C)C)N(C)C(=O)N1CCC3(CCN(C(=O)/C=C/CN(C)C)C3)CC1)C(=O)N1CCC[C@H](N1)C(=O)OCC(C)(C)C2 (atropisomer, axis not shown) [Example A39]

pIC50 (K-Ras G12C): < 6.00
SMILES: C=CC(=O)N1CCN(C)C2(CCN(C(=O)N(C)[C@H](C(=O)N[C@H]3C[C@H]4CN(CCO4)c4ccc5c(c4)c(c(-c4cccnc4[C@H](C)OC)n5CC)CC(C)(C)COC(=O)[C@@H]4CCCN(N4)C3=O)C(C)C)CC2)C1 (atropisomer, axis not shown) [Example A189]

pIC50 (K-Ras G12C): < 6.05
SMILES: C=CC(=O)N1CCOC2(CCN(C(=O)N(C)[C@H](C(=O)N[C@H]3C[C@@]4(C)CN(CCO4)c4ccc5c(c4)c(c(-c4cccnc4[C@H](C)OC)n5CC)CC(C)(C)COC(=O)[C@@H]4CCCN(N4)C3=O)C(C)C)CC2)C1 (atropisomer, axis not shown) [Example A130]

pIC50 (K-Ras G12C): < 6.00
SMILES: C=CC(=O)N1COC2(CCN(C(=O)N(C)[C@H](C(=O)N[C@H]3CC4=NC=C(O4)c4ccc5c(c4)c(c(-c4cccnc4[C@H](C)OC)n5CC)CC(C)(C)COC(=O)[C@@H]4CCCN(N4)C3=O)C(C)C)CC2)C1 (atropisomer, axis not shown) [Example A37]

pIC50 (K-Ras G12C): < 6.00
SMILES: C=CC(=O)N1CCOC2(CCN(C(=O)N(C)[C@H](C(=O)N[C@H]3Cc4cncc(n4)-c4ccc5c(c4)c(c(-c4cccnc4[C@H](C)OC)n5CC)CC(C)(C)COC(=O)[C@@H]4CCCN(N4)C3=O)C(C)C)CC2)C1 (atropisomer, axis not shown) [Example A36]

pIC50 (K-Ras G12C): < 6.00
SMILES: C=CC(=O)N1CCOC2(CCN(C(=O)N(C)[C@H](C(=O)N[C@H]3Cc4cncc(c4)-c4ccc5c(c4)c(c(-c4cccnc4[C@H](C)OC)n5CC)CC(C)(C)COC(=O)[C@@H]4CCCN(N4)C3=O)C(C)C)CC2)C1 (atropisomer, axis not shown) [Example A124]

pIC50 (K-Ras G12C): < 6.00
SMILES: C=CC(=O)N1CCOC2(C1)CN(C(=O)N(C)[C@H](C(=O)N[C@H]1C[C@H]3CN(CCO3)c3ccc4c(c3)c(c(-c3cccnc3[C@H](C)OC)n4CC)CC(C)(C)COC(=O)[C@@H]3CCCN(N3)C1=O)C(C)C)C2 (atropisomer, axis not shown) [Example A136]

pIC50 (K-Ras G12C): < 6.00
pIC50 (NCI-H358 (K-Ras G12C)): < 6.00
SMILES: CCn1c(-c2cccnc2[C@H](C)OC)c2c3cc(ccc31)C1=CCCN(C1)C[C@H](NC(=O)[C@H](C(C)C)N(C)C(=O)N1CCC3(CCN(C(=O)/C=C/CN(C)C)C3)CC1)C(=O)N1CCC[C@H](N1)C(=O)OCC(C)(C)C2 (atropisomer, axis not shown) [Example A192]

pIC50 (K-Ras G12C): < 6.00
SMILES: C=CC(=O)N1CC2(CCN(C(=O)N(C)[C@H](C(=O)N[C@H]3C[C@H]4CN(CCO4)c4ccc5c(c4)c(c(-c4cccnc4[C@H](C)OC)n5CC)CC(C)(C)COC(=O)[C@@H]4CCCN(N4)C3=O)C(C)C)CC2)C1 (atropisomer, axis not shown) [Example A121]

Continued, molecule first:

SMILES: CO[C@@H](C)c1ncccc1-c1c2c3cc(ccc3n1CC(F)(F)F)C1CN(C1)C[C@H](NC(=O)OC(C)(C)C)C(=O)N1CCC[C@H](N1)C(=O)OCC(C)(C)C2
ring closure, yield of all isomers (from CO[C@@H](C)c1ncccc1-c1c(CC(C)(C)CO)c2cc(C3CN(C[C@H](NC(=O)OC(C)(C)C)C(=O)N4CCC[C@@H](C(=O)O)N4)C3)ccc2n1CC(F)(F)F, ester bond, EDCI/HOBt/DIPEA, DCM, 6.45 mM, 30.0 °C, 16.0 h): 37%

SMILES: CCn1c(-c2cc(N3CCN4CCCC[C@@H]4C3)cnc2[C@H](C)OC)c2c3cc(ccc31)-c1cccc(c1)C[C@H](NC(=O)OC(C)(C)C)C(=O)N1CCC[C@H](N1)C(=O)OCC(C)(C)C2
ring closure, yield of all isomers (from CCn1c(-c2cc(N3CCN4CCCC[C@@H]4C3)cnc2[C@H](C)OC)c(CC(C)(C)CO)c2cc(-c3cccc(C[C@H](NC(=O)OC(C)(C)C)C(=O)N4CCC[C@@H](C(=O)O)N4)c3)ccc21, ester bond, EDCI/HOBt/DIPEA, DCM, 11.3 mM, 25.0 °C, 16.0 h): 62%

SMILES: C=CCOC(=O)N[C@H]1Cc2nc(no2)-c2ccc3c(c2)c(c(-c2cccnc2[C@H](C)OC)n3CC)CC(C)(C)COC(=O)[C@@H]2CCCN(N2)C1=O
ring closure, yield of all isomers (from C=CCOC(=O)NC(Cc1nc(-c2ccc3c(c2)c(CC(C)(C)COC(=O)[C@@H]2CCCNN2)c(-c2cccnc2[C@H](C)OC)n3CC)no1)C(=O)O, amide bond, HATU/DIPEA, DCM, 139.0 mM, 25.0 °C, 16.0 h): 33%

SMILES: CO[C@@H](C)c1ncccc1-c1c2c3cc(ccc3n1CC(F)(F)F)C1CCCN(C1)C[C@H](NC(=O)OC(C)(C)C)C(=O)N1CCC[C@H](N1)C(=O)OCC(C)(C)C2
ring closure, yield of all isomers (from CO[C@@H](C)c1ncccc1-c1c(CC(C)(C)CO)c2cc(C3CCCN(C[C@H](NC(=O)OC(C)(C)C)C(=O)N4CCC[C@@H](C(=O)O)N4)C3)ccc2n1CC(F)(F)F, ester bond, EDCI/HOBT/DIPEA, DCM, 6.2 mM, 25.0 °C): 17%

SMILES: CO[C@@H](C)c1ncccc1-c1c2c3cc(ccc3n1CC(F)(F)F)C1CCN(C1)C[C@H](NC(=O)OC(C)(C)C)C(=O)N1CCC[C@H](N1)C(=O)OCC(C)(C)C2
ring closure, yield of all isomers (from CO[C@@H](C)c1ncccc1-c1c(CC(C)(C)CO)c2cc(C3CCN(C[C@H](NC(=O)OC(C)(C)C)C(=O)N4CCC[C@@H](C(=O)O)N4)C3)ccc2n1CC(F)(F)F, ester bond, EDCI/HOBt/DIPEA, DCM, 6.97 mM, 25.0 °C, 16.0 h): 21%

SMILES: CCn1c(-c2cccnc2[C@H](C)OC)c2c3cc(ccc31)-c1nc(no1)C[C@H](NC(=O)OC(C)(C)C)C(=O)N1CCC[C@H](N1)C(=O)OCC(C)(C)C2
ring closure, yield of all isomers (from CCn1c(-c2cccnc2[C@H](C)OC)c(CC(C)(C)CO)c2cc(-c3nc(C[C@H](NC(=O)OC(C)(C)C)C(=O)N4CCC[C@@H](C(=O)O)N4)no3)ccc21, ester bond, EDCI/HOBT/DIPEA, DCM, 6.8 mM, 25.0 °C, 16.0 h): 18%

SMILES: CCn1c(-c2cc(N3CCN(C(=O)OCc4ccccc4)CC3)cnc2[C@H](C)OC)c2c3cc(ccc31)-c1csc(n1)C[C@H](NC(=O)OC(C)(C)C)C(=O)N1CCC[C@H](N1)C(=O)OCC(C)(C)C2
ring closure, yield of all isomers (from CCn1c(-c2cc(N3CCN(C(=O)OCc4ccccc4)CC3)cnc2[C@H](C)OC)c(CC(C)(C)CO)c2cc(-c3csc(C[C@H](NC(=O)OC(C)(C)C)C(=O)N4CCC[C@@H](C(=O)O)N4)n3)ccc21, ester bond, EDCI/HOBt/DIEA, MeCN, 10.3 mM, 25.0 °C, 16.0 h): 54.8%

SMILES: CO[C@@H](C)c1ncccc1-c1c2c3cc(ccc3n1CC(F)(F)F)-c1coc(n1)C[C@H](NC(=O)OCc1ccccc1)C(=O)N1CCC[C@H](N1)C(=O)OCC(C)(C)C2
ring closure, yield of all isomers (from CO[C@@H](C)c1ncccc1-c1c(CC(C)(C)COC(=O)[C@@H]2CCCNN2)c2cc(-c3coc(C[C@H](NC(=O)OCc4ccccc4)C(=O)O)n3)ccc2n1CC(F)(F)F, amide bond, EDCI/HOBt/DIPEA, DCM, 6.06 mM, 25.0 °C, 16.0 h): 21%
